How the values were obtained:
ants = assay: Repulsion or loss of attractant activity of bait additives to ants; assay type: in vivo; conditions: trace amounts added to ant baits
Carpenter Ant = assay: Liquid carpenter ant bait placed on ant trail: distance traveled after ingestion and kill; assay type: in vivo, Carpenter Ant (Genus Componatus)
Method: The above liquid carpenter ant bait was not formulated with a fragrance or dye, although both these additives may can be added. Soak the liquid ant bait in an absorbent wick, cotton ball or tissue and place on ant trail.
A carpenter ant ingested bait 7a for approximately 20 minutes, walked approximately 1.5-2 feet and was killed. Another carpenter ant ingested bait 7b for approximately 20 minutes, walked 20-30 feet, disappearing in the brush.
The ant baits of the above examples were tested in their natural environment where the particular ants were found. The baits were distributed in small amounts in the areas where the ants were seen to be active. All of the baits were readily accepted by the various ants. Gradually in all of the examples the numbers of ants in the treated areas was reduced to the point that none could be found.

Row | Structure (SMILES) | Loss in attractant activity of ant bait (ants) | Time after Bait Ingestion at which ant disappeared (kill not observed) (Carpenter Ant; Level of toxicant in Bait 0.2%) | Time of Ingestion of Bait by Ant (Carpenter Ant; Level of toxicant in Bait 0.2%) | Distance Traveled (Carpenter Ant; Level of toxicant in Bait 0.2%, ant disappeared) | Nest Killed (Carpenter Ant; Level of toxicant in Bait 0.2%, entire nest killed) | Distance Traveled (Carpenter Ant; Level of toxicant in Bait 1.2%) | Nest Killed (Carpenter Ant; Level of toxicant in Bait 1.2%) | Time Ant Killed after Bait Ingestion (Carpenter Ant; Level of toxicant in Bait 1.2%) | Time of Ingestion of Bait by Ant (Carpenter Ant; Level of toxicant in Bait 1.2%)
1 | O=c1[nH]sc2ccccc12 [1,2-benzisothiazolin-3-one] | Little or no loss in attractant activity | – | – | – | – | – | – | – | –
2 | COP(=O)(NC(C)=O)SC (stereo not drawn) [acephate] | – | after 35-40 minutes | ˜20 minutes | 20-30 feet | Yes | 1.5-2 feet | No | ˜22-23 minutes | ˜20 minutes
